Values joined by “and” are separate entries in the source; they are usually repeats but may differ in a detail not shown here. Equal entries are not always repeated. “Also recorded” adds a separate entry of the source.
How the values were obtained:
[1] = 37 °C at neutral pH; cited from earlier work
[2] = ORAC(o) assay: oxygen radical absorbance capacity by dissolved oxygen; format: biochemical; parameters: unit not given here; details: quercetin sample at 10µg/mL
Method: Method of Measuring Antioxidant Activity. In operation, the ORAC(o) assay of the present invention was used to evaluate antioxidant compositions, combinations and the like of solutions against a target molecule (linoleic acid) with oxygen present at equilibrium with the air. A free radical initiator is added and the time it takes for oxygen to disappear is measured, yielding the rate of disappearance. Trolox® is used as the standard, and a blank is run as a control. Amount of dissolved oxygen vs. time is plotted allowing direct comparison of net areas under the curve. A detailed method is as follows: Buffers (K2HPO4 (F.W. 174.2), NaH2PO4 (FW 120.0)) were obtained from Sigma (St. Louis, MO). […] HPLC grade acetone was obtained from Fisher (Hampton, NH). A YSI […] biological oxygen meter was obtained from YSI (Yellow Springs, Ohio) and used according to the manufacturer's specifications. ORAC(o) Method. The following stock solutions were used. […] Weigh 65.33g into 500mL of volumetric flask, and add dH20 to the mark. Concentration is 750 mM. Store 750 mM K2HPO4 stock solution in a refrigerator (2 to 8°C) equipped with a calibrated thermometer. Target temperature is 4°C. 750mM NaH2PO4 (FW 120.0); Weigh 45.00 g into 500 mL of volumetric flask, and add dH20 to the mark. […] Keep covered at room temperature until ready to use. […]

[3] = ORAC(fl) assay (fluorescein, method of Ou et al.); format: biochemical; details: mixed at different ratios with quercetin; standard acetone:water solution
Method: Prior Art Method of Measuring Antioxidant Activity for Comparison. For the ORAC(fl) assay, the method of Ou et al. (Ou , B., Hampsch-Woodill, M. and Prior, R.L., J. Agric. Food Chem. 2001, 49, 4619-4626) was followed. Differences from the Ou procedure as published included the speed of the orbital shaker (Ou, 400 rpm; herein, 280 rpm), and the centrifuge speed (Ou, 14,000 rpm, 15 min; herein, 3200 rpm, 15 min and the length of the assay (Ou, 30 min; herein, 100 min). Fluorescein, sodium salt, was obtained from Aldrich (Milwaukee, WI). For the Ou method, a standard amount of fluorescein is added to an antioxidant product being tested, and the beginning level of fluorescence is measured. A free radical initiator is added, and the time and degree of disappearance of fluorescence are measured. Trolox®, 6-Hydroxy-2,5,7,8-tetramethylchroman-2-carboxylic Acid, is a cell-permeable, water-soluble derivative of vitamin E with potent antioxidant properties. Trolox® prevents peroxynitrite-mediated oxidative stress and apoptosis in rat thymocytes and is a synthetic antioxidant that is consistent from lot-to-lot and is used as the standard and run for comparison with each sample. A blank (control) used in calculations of the ORAC(o) value for each samples may be included in each run. Fluorescence vs. time is plotted. The blank (control) is subtracted from every curve. […]

Compound: CC(C)(N=NC(C)(C)C(=N)N)C(=N)N.Cl.Cl [AAPH, 2,2' azobis (2-amidinopropane) dihydrochloride]
- half life [1]: about 175 hours

Compound: O=c1c(O)c(-c2ccc(O)c(O)c2)oc2cc(O)cc(O)c12 [quercetin]
- Area Under Curve (AUC) ([2]; each day an average of 3 runs, 5 day precision trial): 202.7 and 212.9 and 187 and 202.9 and 213.1
- Area under curve ([2]; single runs of single day precision trial): 207.4 and 198.2 and 205 and 201.6 and 202.1

Compound: Cc1c(C)c2c(c(C)c1O)CC[C@@](C)(CCC[C@H](C)CCC[C@H](C)CCCC(C)C)O2 [α-tocopherol]
- contribution of α-tocopherol to AO activity [3]: no contribution to AO activity; also recorded: no statistically significant activity
